Source: paper PMC6376136, “Impact of lipid binding on the tertiary structure and allergenic potential of Jug r 3, the non-specific lipid transfer protein from walnut” (Scientific Reports, 2019)

Target: T1, Jug r 3 (Juglans regia, UniProt C5H617)
T1 construct: mature protein, secreted from Pichia pastoris GS115 (pPICZalphaA), signal peptide removed; four extra N-terminal residues EAEF; monomer
T1 sequence (C5H617 27-119): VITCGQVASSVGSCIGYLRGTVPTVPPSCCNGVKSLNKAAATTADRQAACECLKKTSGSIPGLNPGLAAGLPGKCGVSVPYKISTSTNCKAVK
Assay: ANS fluorescence displacement
Assay type: binding
Conditions: 10 uM protein, 10 uM ANS, protein:ligand 1:10 (100 uM ligand), overnight at 4 °C

- % reduction of ANS fluorescence at protein:ligand 1:10: 31%
Compound: CCCCCCCC/C=C\CCCCCCCC(=O)O [OLE, oleate]
